Reference: patent US20250017940A1, “SELECTIVE PEPTIDOMIMETIC MODULATORS OF CAV2.2 (N-TYPE) VOLTAGE-GATED CALCIUM CHANNELS AND USES THEREOF” (New York University, priority 2023, published 2025)

Key:
[1] = target: T1, Cav2.2 (Rattus norvegicus, UniProt Q02294); experiment: Immunocytochemistry / confocal microscopy of Cav2.2 membrane expression in DRG neurons; assay type: cell-based; conditions: 20 μM overnight (DMSO: 3.59±0.42)
T1 construct: Recordings were obtained from acutely dissociated DRG neurons; endogenous in cells; host or cells: primary rat DRG neurons
T1 sequence (Q02294 whole entry): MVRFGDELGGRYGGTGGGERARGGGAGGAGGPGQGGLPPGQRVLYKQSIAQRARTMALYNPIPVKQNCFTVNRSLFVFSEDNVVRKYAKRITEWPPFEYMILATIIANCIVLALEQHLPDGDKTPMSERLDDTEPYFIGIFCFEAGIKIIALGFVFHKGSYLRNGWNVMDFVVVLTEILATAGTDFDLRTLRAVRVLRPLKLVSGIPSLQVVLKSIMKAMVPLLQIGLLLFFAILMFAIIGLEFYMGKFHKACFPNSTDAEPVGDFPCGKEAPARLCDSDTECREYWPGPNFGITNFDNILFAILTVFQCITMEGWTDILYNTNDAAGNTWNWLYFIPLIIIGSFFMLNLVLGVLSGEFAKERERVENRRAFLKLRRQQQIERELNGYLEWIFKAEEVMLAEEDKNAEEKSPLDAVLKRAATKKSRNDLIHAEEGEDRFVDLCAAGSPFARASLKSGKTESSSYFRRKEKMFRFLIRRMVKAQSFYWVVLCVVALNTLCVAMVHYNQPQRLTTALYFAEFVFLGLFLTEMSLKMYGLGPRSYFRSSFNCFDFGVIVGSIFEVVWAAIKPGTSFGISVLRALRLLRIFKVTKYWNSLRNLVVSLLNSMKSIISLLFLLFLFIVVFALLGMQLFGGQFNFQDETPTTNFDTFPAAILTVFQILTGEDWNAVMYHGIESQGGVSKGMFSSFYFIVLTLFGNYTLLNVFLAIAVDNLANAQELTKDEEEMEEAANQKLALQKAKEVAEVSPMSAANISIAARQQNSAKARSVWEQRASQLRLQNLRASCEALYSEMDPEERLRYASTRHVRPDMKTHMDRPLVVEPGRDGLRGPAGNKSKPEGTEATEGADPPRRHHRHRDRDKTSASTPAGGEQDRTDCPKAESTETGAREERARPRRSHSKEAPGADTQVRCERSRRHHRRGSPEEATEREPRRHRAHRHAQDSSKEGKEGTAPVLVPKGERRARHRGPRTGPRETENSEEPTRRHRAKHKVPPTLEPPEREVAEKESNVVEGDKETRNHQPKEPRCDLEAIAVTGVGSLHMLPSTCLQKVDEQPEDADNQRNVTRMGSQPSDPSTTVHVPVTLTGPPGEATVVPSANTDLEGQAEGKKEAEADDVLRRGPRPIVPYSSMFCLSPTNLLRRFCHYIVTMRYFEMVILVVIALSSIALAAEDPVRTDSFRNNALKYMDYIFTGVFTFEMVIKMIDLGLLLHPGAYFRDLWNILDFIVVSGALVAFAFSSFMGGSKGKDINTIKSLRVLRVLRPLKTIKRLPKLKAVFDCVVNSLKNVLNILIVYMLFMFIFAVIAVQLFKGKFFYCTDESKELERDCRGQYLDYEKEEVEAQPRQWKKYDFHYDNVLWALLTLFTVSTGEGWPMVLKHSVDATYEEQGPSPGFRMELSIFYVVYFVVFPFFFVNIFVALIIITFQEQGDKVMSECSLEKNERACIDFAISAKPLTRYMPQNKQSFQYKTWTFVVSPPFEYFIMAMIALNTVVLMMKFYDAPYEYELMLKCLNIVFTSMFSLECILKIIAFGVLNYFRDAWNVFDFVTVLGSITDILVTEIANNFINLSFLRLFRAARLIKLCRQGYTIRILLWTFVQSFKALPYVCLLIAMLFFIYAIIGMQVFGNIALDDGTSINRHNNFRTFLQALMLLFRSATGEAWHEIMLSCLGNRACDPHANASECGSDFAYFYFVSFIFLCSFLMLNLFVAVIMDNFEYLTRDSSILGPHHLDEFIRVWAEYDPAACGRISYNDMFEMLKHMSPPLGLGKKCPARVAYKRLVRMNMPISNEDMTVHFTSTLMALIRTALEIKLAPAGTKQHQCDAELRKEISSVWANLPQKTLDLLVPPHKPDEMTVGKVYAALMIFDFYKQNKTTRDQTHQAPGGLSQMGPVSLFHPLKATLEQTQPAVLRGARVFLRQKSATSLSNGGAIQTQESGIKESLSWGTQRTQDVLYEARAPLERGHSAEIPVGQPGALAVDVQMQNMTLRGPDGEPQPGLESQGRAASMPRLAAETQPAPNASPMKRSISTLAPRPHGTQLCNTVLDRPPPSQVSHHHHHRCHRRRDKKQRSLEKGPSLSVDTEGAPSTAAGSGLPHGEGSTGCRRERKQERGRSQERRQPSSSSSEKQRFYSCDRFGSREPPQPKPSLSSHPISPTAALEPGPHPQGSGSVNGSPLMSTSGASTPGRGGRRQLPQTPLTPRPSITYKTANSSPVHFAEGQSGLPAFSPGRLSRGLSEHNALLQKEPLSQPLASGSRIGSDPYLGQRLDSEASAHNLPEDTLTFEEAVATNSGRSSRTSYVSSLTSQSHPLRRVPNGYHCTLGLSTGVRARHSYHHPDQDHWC
T1 sequence (P54290 25-1091 partner): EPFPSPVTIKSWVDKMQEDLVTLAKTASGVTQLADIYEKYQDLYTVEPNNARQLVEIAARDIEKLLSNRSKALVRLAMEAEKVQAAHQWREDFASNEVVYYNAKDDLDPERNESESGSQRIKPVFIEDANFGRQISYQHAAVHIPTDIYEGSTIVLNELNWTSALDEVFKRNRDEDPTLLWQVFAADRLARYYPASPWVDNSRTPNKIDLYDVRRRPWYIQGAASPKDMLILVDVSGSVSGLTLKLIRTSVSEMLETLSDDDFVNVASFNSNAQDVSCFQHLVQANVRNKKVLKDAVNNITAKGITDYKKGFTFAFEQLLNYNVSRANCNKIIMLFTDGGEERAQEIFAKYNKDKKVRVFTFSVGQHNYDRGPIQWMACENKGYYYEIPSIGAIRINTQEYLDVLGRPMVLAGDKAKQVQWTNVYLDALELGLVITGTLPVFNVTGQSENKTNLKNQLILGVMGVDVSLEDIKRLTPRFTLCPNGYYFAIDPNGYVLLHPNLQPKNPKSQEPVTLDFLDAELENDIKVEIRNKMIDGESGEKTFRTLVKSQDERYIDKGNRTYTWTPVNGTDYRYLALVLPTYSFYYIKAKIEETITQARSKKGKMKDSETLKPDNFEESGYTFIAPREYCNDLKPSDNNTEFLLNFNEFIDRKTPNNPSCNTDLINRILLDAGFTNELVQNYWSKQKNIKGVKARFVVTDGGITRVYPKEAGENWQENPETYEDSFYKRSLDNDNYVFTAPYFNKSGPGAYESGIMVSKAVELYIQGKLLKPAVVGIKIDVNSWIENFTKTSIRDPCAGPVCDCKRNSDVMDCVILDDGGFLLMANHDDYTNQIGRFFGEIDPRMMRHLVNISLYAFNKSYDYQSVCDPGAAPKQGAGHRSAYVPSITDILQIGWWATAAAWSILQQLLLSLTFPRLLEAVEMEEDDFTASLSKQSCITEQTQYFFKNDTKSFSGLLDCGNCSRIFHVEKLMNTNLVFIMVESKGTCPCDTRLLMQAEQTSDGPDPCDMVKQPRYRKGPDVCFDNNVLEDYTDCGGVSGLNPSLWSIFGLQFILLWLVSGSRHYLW
T1 sequence (P54287 whole entry partner): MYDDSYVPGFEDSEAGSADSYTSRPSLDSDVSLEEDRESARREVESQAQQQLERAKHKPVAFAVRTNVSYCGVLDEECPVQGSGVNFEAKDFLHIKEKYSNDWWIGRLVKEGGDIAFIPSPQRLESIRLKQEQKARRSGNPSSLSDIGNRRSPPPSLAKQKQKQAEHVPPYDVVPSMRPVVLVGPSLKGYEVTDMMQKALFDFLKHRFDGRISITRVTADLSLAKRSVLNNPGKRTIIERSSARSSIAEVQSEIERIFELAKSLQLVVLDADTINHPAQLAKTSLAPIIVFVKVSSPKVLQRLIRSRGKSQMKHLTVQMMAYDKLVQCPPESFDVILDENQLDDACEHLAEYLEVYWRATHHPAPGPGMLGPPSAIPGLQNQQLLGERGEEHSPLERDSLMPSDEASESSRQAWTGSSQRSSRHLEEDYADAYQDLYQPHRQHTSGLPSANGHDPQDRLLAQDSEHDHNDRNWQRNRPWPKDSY
Method: Lumbar DRGs were dissected from 100 g female Sprague-Dawley rats using procedures as described previously (Gomez et al., 2022). DRGs were excised and placed in sterile DMEM (Cat #11965; Thermo Fisher Scientific, Waltham, MA). The ganglia were dissociated enzymatically with collagenase type I (5 mg/mL, Cat #LS004194; Worthington) and neutral protease (3.125 mg/mL, Cat #LS02104; Worthington, Lakewood, NJ) for 50 minutes at 37° C. under gentle agitation. The dissociated cells were then centrifuged (800 rpm for 5 min) and resuspended in DMEM containing 1% penicillin/streptomycin sulfate (Cat #15140, Life Technologies, Carlsbad, CA), 10% fetal bovine serum [HyClone]), and 30 ng/mL nerve growth factor (Cat #N2513, Millipore Sigma, St. Louis, MO). The cells were seeded on poly-D-lysine (Cat #P6407, Millipore Sigma, St. Louis, MO) and laminin (Cat #sc-29012, Santa Cruz Biotechnology, Dallas, TX) -coated 12- or 15-mm glass coverslips and incubated at 37° C. All cultures were used within 48 hours.
Immunocytochemistry was performed on DRG neurons incubated with vehicle (0.1% DMSO) or CBD3063 (20 μM) overnight. […] For all quantitative comparisons among cells under differing experimental conditions, camera gain and other relevant settings were kept constant. The freeware image analysis program Image J (http://rsb.info.nih.gov/ij/) was used for quantifying cellular fluorescence. […]

[2] = target: T2, Cav2.2 (N-type) calcium channels (Rattus norvegicus, UniProt Q02294); experiment: Whole-cell patch-clamp, isolated N-type Ca2+ currents in DRG neurons; assay type: cell-based; conditions: for normalized peak N-type ICa2+ density: normalized to DMSO (1.00±0.07)
T2 construct: Recordings were obtained from acutely dissociated DRG neurons; endogenous in cells; host or cells: primary rat DRG neurons
T2 sequence (Q02294 whole entry): as the sequence (Q02294 whole entry) above
T2 sequence (P54290 25-1091 partner): as the sequence (P54290 25-1091 partner) above
T2 sequence (P54287 whole entry partner): as the sequence (P54287 whole entry partner) above
Method: Recordings were obtained from acutely dissociated DRG neurons as described earlier (Bellampalli et al., 2019). Patch-clamp recordings were performed at room temperature (22-24° C.). Currents were recorded using an EPC 10 Amplifier-HEKA (HEKA Elektronik, Ludwigshafen, Germany) linked to a computer with Patchmaster software. […]
For total calcium current (ICa^2+) recordings, the external solution consisted of the following (in mM): 110 N-methyl-D-glucamine, 10 BaCl2, 30 TEA-Cl, 10 HEPES, 10 glucose, and 0.001 TTX (pH 7.29 adjusted with TEA-OH, and mOsm/L=310). Patch pipettes were filled with an internal solution containing (in mM): 150 CsCl2, 10 HEPES, 5 Mg-ATP, and 5 BAPTA, (pH 7.2 adjusted with CsOH, and mOsm/L-305). Peak Ca^2+ current was acquired by applying 200-millisecond voltage steps from −70 to +60 mV in 10-mV increments from a holding potential of −90 mV to obtain the current-voltage (I-V) relation. To measure the different subtypes of Ca^2+ channels, DRGs were treated with a Cav inhibitor cocktail omitting the inhibitor specific to the subtype being tested (e.g., to measure Cav2.2 currents, ω-conotoxin GVIA is omitted): Nifedipine (10 μM, L-type), ω-Conotoxin-GVIA (500 nM, […]) (Feng, et al., 2001), SNX482 (200 nM, R-type) (Newcomb et al., 1998), ω-agatoxin (200 nM, P/Q-type) (Mintz et al., 1992), TTA-P2 (1 μM, T-type) (Choe et al., 2011).
Normalization of currents to each cell's capacitance (pF) was performed to allow for collection of current density data. For I-V curves, functions were fitted to data using a non-linear least squares analysis. I-V curves were fitted using double Boltzmann functions:
where x is the pre-pulse potential, V1/2 is the mid-point potential, and k is the corresponding slope factor for single Boltzmann functions. Double Boltzmann fits were used to describe the shape of the curve, not to imply the existence of separate channel populations. Numbers 1 and 2 simply indicate first and second mid-points; a along with g are fitting parameters.
Activation curves were obtained from the I-V curves by dividing the peak current at each depolarizing step by the driving force according to the equation: G=I/(Vmem-Erev), where I is the peak current, Vmem is the membrane potential and Erev is the reversal potential. The conductance (G) was normalized against the maximum conductance (Gmax). For total and the different subtypes of Ca^2+ currents, steady-state inactivation (SSI) curves were obtained by applying an H-infinity protocol that consisted of 1.5-seconds conditioning pre-pulses from −100 to +30 mV in 10-mV increments followed by a 20-millisecond test pulse to +10 mV. For Na^+ currents, SSI curves were obtained by applying an H-infinity protocol that consisted of 1-second conditioning pre-pulses from −120 to +10 mV in 10-mV increments followed by a 200-millisecond test pulse to +10 mV. Inactivation curves were obtained by dividing the peak current recorded at the test pulse by the maximum current (Imax). Activation and SSI curves were fitted with the Boltzmann equation.

[3] = 20 μM overnight, mean ± SEM (n cells)

Cav2.2 membrane/cytosol ratio [1]: 1.64±0.10
normalized peak N-type ICa2+ density ([2]; 2 μM overnight): 0.93±1.07
peak N-type calcium current density ([2]; 20 μM overnight, +10 mV (DMSO: −104.00±11.32)): −69.18±6.54 pA/pF
decrease of N-type currents at peak current density ([2]; 20 μM overnight, +10 mV, vs control group): ~33.5%
N-type Ca2+ currents, activation V1/2 [2, 3]: −5.275 ± 0.669 (17) mV
N-type Ca2+ currents, activation k (slope factor) [2, 3]: 5.616 ± 0.566 (17)
N-type Ca2+ currents, inactivation V1/2 [2, 3]: −31.129 ± 2.169 (17) mV
N-type Ca2+ currents, inactivation k (slope factor) [2, 3]: −17.247 ± 2.104 (17)
normalized peak N-type ICa2+ density ([2]; 20 μM overnight): 0.74±0.04
normalized peak N-type ICa2+ density ([2]; 50 μM overnight): 0.65±0.06
SMILES: CC(=O)N[C@@H]1CCCN(C(=O)NCCCNc2ccccn2)C1 [CBD3063, (3R)-3-acetamido-N-[3-(pyridin-2-ylamino)propyl]piperidine-1-carboxamide]
